Assay results from patent publication US10562869B2, “Oxadiazole compounds” (REMYND NV, priority 2014, dated 2020).

System: M17_3SYN cells
Assay: Paraquat-induced cytotoxicity (LDH) in α-synuclein over-expressing M17_3SYN neuroblastoma cells
Type: cell-based, human
Conditions: Homo sapiens, Neuroblastoma cell, 48 h, toxicity inhibition (LDH) in M17_3SYN cells challenged with 6 mM paraquat, 2 days; read-out: SYN EC50
Description: A α-synuclein expression plasmid was constructed by subcloning the NcoI/XhoI fragment from 212T-SYN(WT) (Griffioen et al., Biochem Biophys Acta (2006) 1762(3):312-318) containing the cDNA of human wild type α-synuclein correspondingly into a standard mammalian expression vector pcDNA3.1 resulting in plasmid pcDNA3.1-SYNwt. Plasmids pcDNA3.1 and pcDNA3.1-SYNwt were transfected into human neuroblastoma cells (BE-M17; ATCC No. CRL-2267™) using lipofectamine reagent and subsequently, independent clonal cell lines with the plasmids stably integrated into the genome were selected by antibiotic resistance selection (Geneticin (G418)), resulting in cell lines M17.pcDNA3 and M17_3SYN. Overexpression of α-synuclein in the M17_3SYN cell line was confirmed by Western blot analysis.
Due to the high levels of α-synuclein, M17_3SYN cells were sensitive to paraquat, a well-known risk factor Parkinson's disease and of synuclein-dependent neuronal degeneration. Cytotoxicity of cells was measured by quantification of lactate dehydrogenase (LDH) levels. In dead cells, LDH leaked out of the cells into the medium due to a loss of plasma-membrane integrity.
[…], primary pre-cultures of M17.pcDNA3 (as possible control) and M17_3SYN cells were prepared, starting from a stock culture, at a density of 20.000-40.000 cells/cm2 in culture medium (Opti-MEM® Reduced Serum Medium with Phenol Red (Invitrogen, Cat. 31985-047) supplemented with 10% FCS, 1 mM sodium pyruvate, 1×NEAA, 500 μg/ml G418 and 0.5×antibiotic/antimycotic (ABAM)). 3 days later these primary pre-cultures were used as a starting point to make secondary pre-cultures at a density of 50.000-100.000 cells/cm^2. At the day of the experiment these secondary precultures were diluted to ˜0.5·10^6 cells/ml in detection medium (Opti-MEM® Reduced-Serum Medium without Phenol Red (Invitrogen, Cat. 11085-021) supplemented with 10% FCS, 1 mM sodium pyruvate, 1×NEAA, 500 μg/ml G418 and 0.5×ABAM) and 60 μL of this suspension was dispensed per well into a 96-well microtiter plate. After 3 hours of incubation at 37° C./5% CO2 an equal volume of detection medium containing a final concentration of 6 mM Paraquat was added and subsequently incubated for 2 days at 37° C./5% CO2. Then LDH activity was determined using the Promega Cytotox 96 Non-Radioactive cytotoxicity assay (Promega, Cat. G1780), according to the manufacturer's instructions. Cytotoxicity was defined as the ratio of LDH relative to the total LDH in the cells and supernatant.
The assay described above using the M17_3SYN cell line allowed screening compounds for their ability to decrease cytotoxicity in PQ-challenged cells. Compounds of the invention were tested for their ability to decrease toxicity at different concentrations, ranging from low non-effective concentrations to high effective concentrations. Afterwards, a dose-dependent inhibition curve was used to calculate the EC50. A compound was considered to be active in this test when it inhibited toxicity by more than 20% relative to untreated M17_3SYN cells at a concentration of 10 μM or lower.

Question: With `CC(C)(c1cccc(Cl)c1)c1noc(N2CCN(S(=O)(=O)c3ccc(OC(F)F)cc3)CC2)n1` [Cmpd154, 1-{3-[1-(3-Chloro-phenyl)-1-methyl-ethyl]-[1,2,4]oxadiazol-5-yl}-4-(4-difluoromethoxy-benzenesulfonyl)-piperazine] as the molecule, how does the EC50 read?
Answer: 7 nM

Question: `CCC(c1ccccc1)c1noc(N2CCN(S(=O)(=O)c3ccc(OC(F)F)cc3)CC2)n1` (stereo not drawn) [Cmpd046, 1-(4-Difluoromethoxy-benzenesulfonyl)-4-[3-(1-phenyl-propyl)-[1,2,4]oxadiazol-5-yl]-piperazine] was tested. Which EC50 did it give?
Answer: 59 nM

Question: Which EC50 does the source give for `COc1ccc(S(=O)(=O)N2CCN(c3nc(C4C[C@@H]5CC[C@H]4C5)no3)CC2)cc1` (stereo partly drawn) [Cmpd190, 3-((1S,4R)-bicyclo[2.2.1]heptan-2-yl)-5-(4-((4-methoxyphenyl)sulfonyl)piperazin-1-yl)-1,2,4-oxadiazole] here?
Answer: 215 nM

Question: With `COc1ccc(S(=O)(=O)N2CCN(c3nc(C(C)(C)c4ccccc4)no3)CC2)cc1` [Cmpd197, 1-(4-Methoxy-benzenesulfonyl)-4-[3-(1-methyl-1-phenyl-ethyl)-[1,2,4]oxadiazol-5-yl]-piperazine] as the molecule, how does the EC50 read?
Answer: 2 nM

Question: For `COc1ccc(S(=O)(=O)N2CCN(c3nc(COc4cccc(Cl)c4)no3)CC2)cc1` [Cmpd201, 3-((3-Chlorophenoxy)methyl)-5-(4-((4-methoxyphenyl)sulfonyl)piperazin-1-yl)-1,2,4-oxadiazole], which EC50 is on record?
Answer: 11 nM

Question: How did the EC50 turn out when `CCOc1ccc(S(=O)(=O)N2CCN(c3nc(CC(F)(F)F)no3)CC2)cc1` [Cmpd166, 5-(4-((4-Ethoxyphenyl)sulfonyl)piperazin-1-yl)-3-(2,2,2-trifluoroethyl)-1,2,4-oxadiazole] was run?
Answer: 368 nM

Question: Which EC50 does the source give for `COc1ccc(S(=O)(=O)N2CCN(c3nc(C(C)(C)c4cccc(Cl)c4)no3)CC2)cc1` [Cmpd152, 1-{3-[1-(3-Chloro-phenyl)-1-methyl-ethyl]-[1,2,4]oxadiazol-5-yl}-4-(4-methoxy-benzenesulfonyl)-piperazine] here?
Answer: 1 nM

Question: `COc1ccc(S(=O)(=O)N2CCN(c3nc(C4CCCCC4)no3)CC2)cc1` [Cmpd210, 3-Cyclohexyl-5-(4-((4-methoxyphenyl)sulfonyl)piperazin-1-yl)-1,2,4-oxadiazole] was tested. Which EC50 did it give?
Answer: 327 nM

Question: For `CC[C@H](c1ccccc1)c1noc(N2CCN(S(=O)(=O)c3ccc(OC)cc3)CC2)n1` [Cmpd051, 1-(4-Methoxy-benzenesulfonyl)-4-[3-((R)-1-phenyl-propyl)-[1,2,4]oxadiazol-5-yl]-piperazine], which EC50 is on record?
Answer: 46 nM

Question: `O=S(=O)(c1ccc(F)cc1)N1CCN(c2nc(Cc3cccc(F)c3)no2)CC1` [Cmpd085, 1-(4-Fluoro-benzenesulfonyl)-4-[3-(3-fluoro-benzyl)-[1,2,4]oxadiazol-5-yl]-piperazine] was tested. Which EC50 did it give?
Answer: 250 nM

Question: For `CCOc1ccc(S(=O)(=O)N2CCN(c3nc(Cc4ccc(Cl)cc4)no3)CC2)cc1` [Cmpd053, 1-[3-(4-Chloro-benzyl)-[1,2,4]oxadiazol-5-yl]-4-(4-ethoxy-benzenesulfonyl)-piperazine], which EC50 is on record?
Answer: 31 nM

Question: `CCOc1ccc(S(=O)(=O)N2CCN(c3nc(C(C)(C)c4cccc(Cl)c4)no3)CC2)cc1` [Cmpd153, 1-{3-[1-(3-Chloro-phenyl)-1-methyl-ethyl]-[1,2,4]oxadiazol-5-yl}-4-(4-ethoxy-benzenesulfonyl)-piperazine] was tested. Which EC50 did it give?
Answer: 5 nM

Question: Which EC50 does the source give for `O=S(=O)(c1ccc(OC(F)F)cc1)N1CCN(c2nc(Cc3cccc(Cl)c3)no2)CC1` [Cmpd074, 1-[3-(3-Chloro-benzyl)-[1,2,4]oxadiazol-5-yl]-4-(4-difluoromethoxy-benzenesulfonyl)-piperazine] here?
Answer: 10 nM

Question: Which EC50 does the source give for `O=S(=O)(c1ccc(OC(F)F)cc1)N1CCN(c2nc(CC3CC3)no2)CC1` [Cmpd160, 3-(Cyclopropylmethyl)-5-(4-((4-(difluoromethoxy)phenyl)sulfonyl)piperazin-1-yl)-1,2,4-oxadiazole] here?
Answer: 148 nM

Question: How did the EC50 turn out when `COc1ccc(S(=O)(=O)N2CCN(c3nc(Cc4ccc(F)c(F)c4)no3)CC2)cc1` [Cmpd099, 1-[3-(3,4-Difluoro-benzyl)-[1,2,4]oxadiazol-5-yl]-4-(4-methoxy-benzenesulfonyl)-piperazine] was run?
Answer: 16 nM

Question: Which EC50 does the source give for `CCC(c1ccccc1)c1noc(N2CCN(S(=O)(=O)c3ccc(OC)cc3)CC2)n1` (stereo not drawn) [Cmpd044, 5-(4-((4-Methoxyphenyl)sulfonyl)piperazin-1-yl)-3-(1-phenylpropyl)-1,2,4-oxadiazole] here?
Answer: 15 nM

Question: How did the EC50 turn out when `CC(C)(c1ccccc1)c1noc(N2CCN(S(=O)(=O)c3ccc(OC(F)F)cc3)CC2)n1` [Cmpd196, 1-(4-Difluoromethoxy-benzenesulfonyl)-4-[3-(1-methyl-1-phenyl-ethyl)-[1,2,4]oxadiazol-5-yl]-piperazine] was run?
Answer: 8 nM

Question: `CCOc1ccc(S(=O)(=O)N2CCN(c3nc(Cc4ccc(F)c(F)c4)no3)CC2)cc1` [Cmpd100, 1-[3-(3,4-Difluoro-benzyl)-[1,2,4]oxadiazol-5-yl]-4-(4-ethoxy-benzenesulfonyl)-piperazine] was tested. Which EC50 did it give?
Answer: 130 nM

Question: `O=S(=O)(c1ccc(OC(F)F)cc1)N1CCN(c2nc(C3C[C@@H]4CC[C@H]3C4)no2)CC1` (stereo partly drawn) [Cmpd192, 3-((1 S,4R)-bicyclo[2.2.1]heptan-2-yl)-5-(4-((4-(difluoromethoxy)phenyl)sulfonyl)piperazin-1-yl)-1,2,4-oxadiazole] was tested. Which EC50 did it give?
Answer: 164 nM

Question: With `O=c1[nH]c2cc(S(=O)(=O)N3CCN(c4nc(Cc5cccc(Cl)c5)no4)CC3)ccc2o1` [Cmpd077, 5-{4-[3-(3-Chloro-benzyl)-[1,2,4]oxadiazol-5-yl]-piperazine-1-sulfonyl}-3H-benzooxazol-2-one] as the molecule, how does the EC50 read?
Answer: 139 nM

Question: Which EC50 does the source give for `CCOc1ccc(S(=O)(=O)N2CCN(c3nc(C(F)(F)c4ccc(F)cc4)no3)CC2)cc1` [Cmpd147, 1-{3-[Difluoro-(4-fluoro-phenyl)-methyl]-[1,2,4]oxadiazol-5-yl}-4-(4-ethoxy-benzenesulfonyl)-piperazine] here?
Answer: 22 nM

Question: For `O=S(=O)(c1ccc(OC(F)(F)F)cc1)N1CCN(c2nc(Cc3cccc(F)c3)no2)CC1` [Cmpd087, 1-[3-(3-Fluoro-benzyl)-[1,2,4]oxadiazol-5-yl]-4-(4-trifluoromethoxy-benzenesulfonyl)-piperazine], which EC50 is on record?
Answer: 497 nM

Question: `COc1ccc(S(=O)(=O)N2CCN(c3nc(CCC(F)(F)F)no3)CC2)cc1` [Cmpd171, 5-(4-((4-Methoxyphenyl)sulfonyl)piperazin-1-yl)-3-(3,3,3-trifluoropropyl)-1,2,4-oxadiazole] was tested. Which EC50 did it give?
Answer: 248 nM

Question: For `O=S(=O)(c1ccc(OC(F)F)cc1)N1CCN(c2nc(Cc3ccccc3)no2)CC1` [Cmpd039, 1-(3-Benzyl-[1,2,4]oxadiazol-5-yl)-4-(4-difluoromethoxy-benzenesulfonyl)-piperazine], which EC50 is on record?
Answer: 11 nM

Question: With `CSc1ccc(S(=O)(=O)N2CCN(c3nc(CC4CC4)no3)CC2)cc1` [Cmpd161, 3-(Cyclopropylmethyl)-5-(4-((4-(methylthio)phenyl)sulfonyl)piperazin-1-yl)-1,2,4-oxadiazole] as the molecule, how does the EC50 read?
Answer: 23 nM

Question: How did the EC50 turn out when `COc1ccc(S(=O)(=O)N2CCN(c3nc(COc4ccccc4)no3)CC2)cc1` [Cmpd202, 5-(4-((4-Methoxyphenyl)sulfonyl)piperazin-1-yl)-3-(phenoxymethyl)-1,2,4-oxadiazole] was run?
Answer: 11 nM

Same assay, conditions: toxicity inhibition (LDH) in M17_3SYN cells challenged with 6 mM paraquat, 2 days; read-out: SYN EC50

Question: How did the EC50 turn out when `CC(C)Oc1ccc(S(=O)(=O)N2CCN(c3nc(Cc4cccc(F)c4)no3)CC2)cc1` [Cmpd096, 3-(3-Fluorobenzyl)-5-(4-((4-isopropoxyphenyl)sulfonyl)piperazin-1-yl)-1,2,4-oxadiazole] was run?
Answer: 289 nM
